# How the values were obtained:
# Assay in all cases: Growth inhibitory activity of compounds on BaF3 cell lines stably transfected with kinase (MTS, 48 h)
# Type in all cases: cell-based
# [1] = biological target: T1, various mutants of kinase EGFR (BaF3 cell lines stably transfected with kinase) (Homo sapiens, UniProt P00533); conditions: BaF3 cell line stably transfected with EGFR Δ19Del, read-out: Δ19Del growth inhibitory activity IC50
# T1 construct: other: BaF3 cells stably transfected with EGFR Δ19Del; MTS, 48 h; other: BaF3 cell line stably transfected with EGFR Δ19Del
# T1 sequence (P00533 with tags, fused parts or gaps DEL746-750): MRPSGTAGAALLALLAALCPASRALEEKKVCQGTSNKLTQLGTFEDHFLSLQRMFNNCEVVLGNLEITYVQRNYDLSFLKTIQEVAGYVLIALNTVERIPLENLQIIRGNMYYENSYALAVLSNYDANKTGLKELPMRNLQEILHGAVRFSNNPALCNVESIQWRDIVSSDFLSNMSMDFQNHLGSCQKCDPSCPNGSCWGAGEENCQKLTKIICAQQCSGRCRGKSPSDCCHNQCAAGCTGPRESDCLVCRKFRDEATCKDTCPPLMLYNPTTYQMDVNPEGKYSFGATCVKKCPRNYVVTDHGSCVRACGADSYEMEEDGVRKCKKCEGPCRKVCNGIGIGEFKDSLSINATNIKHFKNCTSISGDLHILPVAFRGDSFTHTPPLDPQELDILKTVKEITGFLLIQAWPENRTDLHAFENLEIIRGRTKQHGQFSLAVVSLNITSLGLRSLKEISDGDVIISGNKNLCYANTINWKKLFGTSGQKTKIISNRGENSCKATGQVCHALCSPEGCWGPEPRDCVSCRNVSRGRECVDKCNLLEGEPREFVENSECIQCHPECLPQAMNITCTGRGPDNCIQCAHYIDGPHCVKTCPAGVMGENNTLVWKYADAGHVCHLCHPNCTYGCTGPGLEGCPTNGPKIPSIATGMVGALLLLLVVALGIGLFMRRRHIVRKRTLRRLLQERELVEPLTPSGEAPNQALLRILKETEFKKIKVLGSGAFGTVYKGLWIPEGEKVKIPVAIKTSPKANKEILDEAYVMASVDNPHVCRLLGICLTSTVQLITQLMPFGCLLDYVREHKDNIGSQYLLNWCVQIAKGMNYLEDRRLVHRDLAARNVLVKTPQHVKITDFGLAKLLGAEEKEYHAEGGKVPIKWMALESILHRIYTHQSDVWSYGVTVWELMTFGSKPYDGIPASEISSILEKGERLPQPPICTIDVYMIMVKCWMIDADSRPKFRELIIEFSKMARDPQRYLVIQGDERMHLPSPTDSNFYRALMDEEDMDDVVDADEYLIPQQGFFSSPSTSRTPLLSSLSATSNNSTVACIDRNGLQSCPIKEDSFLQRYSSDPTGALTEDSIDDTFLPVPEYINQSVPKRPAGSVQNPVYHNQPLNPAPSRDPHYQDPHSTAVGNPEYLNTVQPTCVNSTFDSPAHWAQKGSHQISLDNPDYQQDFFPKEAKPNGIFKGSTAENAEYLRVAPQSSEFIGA
# How it was run: (§1)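 OD at 490 nm after 1-4 h MTS/PES incubation gave growth inhibition relative to 0.1% DMSO negative and cell-free medium blank. Compounds: 8-point 1/3 dilution from 10 µM, 48 h, 37 °C. IC50 from inhibition curves; duplicates.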
# [2] = biological target: T2, various mutants of kinase EGFR (BaF3 cell lines stably transfected with kinase) (Homo sapiens, UniProt P00533, C797S/L858R/T790M); conditions: BaF3 cell line stably transfected with EGFR L858R/T790M/C797S, read-out: L858R/T790M/ C797S growth inhibitory activity IC50
# T2 construct: expressed in transfected cells; host or cells: BaF3
# How it was run: as §1
# [3] = biological target: T3, various mutants of kinase EGFR (BaF3 cell lines stably transfected with kinase) (Homo sapiens, UniProt P00533, L858R); conditions: BaF3 cell line stably transfected with EGFR L858R, read-out: L858R growth inhibitory activity IC50
# T3 construct: expressed in transfected cells; host or cells: BaF3
# How it was run: as §1
# [4] = biological target: T4, various mutants of kinase EGFR (BaF3 cell lines stably transfected with kinase) (Homo sapiens, UniProt P00533, L858R/T790M); conditions: BaF3 cell line stably transfected with EGFR L858R/T790M, read-out: L858R/ T790M growth inhibitory activity IC50
# T4 construct: expressed in transfected cells; host or cells: BaF3
# T4 sequence (P00533 25-1210 T790M/L858R): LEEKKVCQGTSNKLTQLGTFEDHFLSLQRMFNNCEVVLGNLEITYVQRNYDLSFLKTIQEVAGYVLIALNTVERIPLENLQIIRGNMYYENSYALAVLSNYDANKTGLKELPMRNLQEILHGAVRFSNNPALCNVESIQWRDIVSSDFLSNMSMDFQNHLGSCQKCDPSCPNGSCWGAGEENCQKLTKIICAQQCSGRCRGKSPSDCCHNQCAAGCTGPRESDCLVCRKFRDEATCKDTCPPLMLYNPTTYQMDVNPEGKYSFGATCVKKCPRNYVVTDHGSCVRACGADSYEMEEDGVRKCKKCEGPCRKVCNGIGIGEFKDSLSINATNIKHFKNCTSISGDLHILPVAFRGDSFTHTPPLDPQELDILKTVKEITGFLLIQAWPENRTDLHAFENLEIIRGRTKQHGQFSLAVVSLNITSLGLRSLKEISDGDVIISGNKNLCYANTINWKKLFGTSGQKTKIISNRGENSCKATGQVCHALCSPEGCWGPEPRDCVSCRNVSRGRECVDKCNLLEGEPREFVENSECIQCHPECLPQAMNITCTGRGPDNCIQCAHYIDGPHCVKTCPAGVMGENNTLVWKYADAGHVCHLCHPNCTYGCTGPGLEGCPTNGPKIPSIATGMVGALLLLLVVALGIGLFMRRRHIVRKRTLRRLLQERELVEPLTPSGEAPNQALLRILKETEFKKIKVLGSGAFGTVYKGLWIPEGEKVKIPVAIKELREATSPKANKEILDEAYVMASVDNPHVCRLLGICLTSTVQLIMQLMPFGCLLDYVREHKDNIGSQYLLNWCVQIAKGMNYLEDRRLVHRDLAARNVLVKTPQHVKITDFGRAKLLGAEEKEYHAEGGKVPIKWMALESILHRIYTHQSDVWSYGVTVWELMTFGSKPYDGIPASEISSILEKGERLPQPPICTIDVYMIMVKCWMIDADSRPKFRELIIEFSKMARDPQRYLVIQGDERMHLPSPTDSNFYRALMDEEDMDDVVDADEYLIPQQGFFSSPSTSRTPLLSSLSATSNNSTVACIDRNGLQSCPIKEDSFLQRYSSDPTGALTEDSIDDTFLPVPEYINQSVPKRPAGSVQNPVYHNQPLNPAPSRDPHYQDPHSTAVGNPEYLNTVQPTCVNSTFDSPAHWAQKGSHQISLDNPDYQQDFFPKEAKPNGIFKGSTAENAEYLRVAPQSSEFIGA
# How it was run: as §1
# [5] = biological target: T5, various mutants of kinase EGFR (BaF3 cell lines stably transfected with kinase) (Homo sapiens, UniProt P00533, T790M/C797S, form not given); conditions: BaF3 cell line stably transfected with EGFR Δ19Del/T790M/C797S, read-out: Δ19Del/T790M/ C797S growth inhibitory activity IC50
# T5 construct: other: BaF3 cells stably transfected with EGFR Δ19Del/T790M/C797S; MTS, 48; other: BaF3 cell line stably transfected with EGFR Δ19Del/T790M/C7
# T5 sequence (P00533 with tags, fused parts or gaps DEL746-750/T790M/C797S, form open): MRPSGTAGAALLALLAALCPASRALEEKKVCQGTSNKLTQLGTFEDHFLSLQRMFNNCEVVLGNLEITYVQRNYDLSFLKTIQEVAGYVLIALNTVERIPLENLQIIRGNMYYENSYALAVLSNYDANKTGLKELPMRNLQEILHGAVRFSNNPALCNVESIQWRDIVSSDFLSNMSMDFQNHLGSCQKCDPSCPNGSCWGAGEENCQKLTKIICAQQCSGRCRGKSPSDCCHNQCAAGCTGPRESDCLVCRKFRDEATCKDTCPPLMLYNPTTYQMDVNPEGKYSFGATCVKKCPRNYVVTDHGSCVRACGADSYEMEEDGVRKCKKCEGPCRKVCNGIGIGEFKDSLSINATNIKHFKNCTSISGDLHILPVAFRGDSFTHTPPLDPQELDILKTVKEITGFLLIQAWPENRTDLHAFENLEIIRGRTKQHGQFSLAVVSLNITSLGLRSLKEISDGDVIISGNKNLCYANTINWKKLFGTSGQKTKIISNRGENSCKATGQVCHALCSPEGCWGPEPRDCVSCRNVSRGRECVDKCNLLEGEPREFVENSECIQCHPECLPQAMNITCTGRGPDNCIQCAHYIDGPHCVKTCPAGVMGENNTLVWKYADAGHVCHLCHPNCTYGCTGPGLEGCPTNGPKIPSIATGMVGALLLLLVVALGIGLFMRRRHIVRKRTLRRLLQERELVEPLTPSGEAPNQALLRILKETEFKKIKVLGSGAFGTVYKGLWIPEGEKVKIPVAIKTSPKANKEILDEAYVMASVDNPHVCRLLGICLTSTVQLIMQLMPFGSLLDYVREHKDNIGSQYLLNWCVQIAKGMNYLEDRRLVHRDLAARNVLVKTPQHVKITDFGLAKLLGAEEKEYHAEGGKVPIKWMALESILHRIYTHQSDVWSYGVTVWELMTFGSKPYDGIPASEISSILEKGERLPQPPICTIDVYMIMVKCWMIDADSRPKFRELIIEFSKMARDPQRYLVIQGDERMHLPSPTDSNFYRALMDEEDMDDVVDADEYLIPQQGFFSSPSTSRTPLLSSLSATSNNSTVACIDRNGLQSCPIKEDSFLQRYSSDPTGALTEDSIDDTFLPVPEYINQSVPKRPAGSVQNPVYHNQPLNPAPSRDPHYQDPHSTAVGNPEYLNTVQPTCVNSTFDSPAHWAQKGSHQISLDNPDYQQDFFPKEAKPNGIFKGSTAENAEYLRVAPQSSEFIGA
# How it was run: as §1
# [6] = biological target: T6, various mutants of kinase EGFR (BaF3 cell lines stably transfected with kinase) (Homo sapiens, UniProt P00533, T790M, form not given); conditions: BaF3 cell line stably transfected with EGFR Δ19Del/T790M, read-out: Δ19Del/ T790M growth inhibitory activity IC50
# T6 construct: other: BaF3 cells stably transfected with EGFR Δ19Del/T790M; MTS, 48 h; other: BaF3 cell line stably transfected with EGFR Δ19Del/T790M; MTS, 48
# T6 sequence (P00533 with tags, fused parts or gaps DEL746-750/T790M, form open): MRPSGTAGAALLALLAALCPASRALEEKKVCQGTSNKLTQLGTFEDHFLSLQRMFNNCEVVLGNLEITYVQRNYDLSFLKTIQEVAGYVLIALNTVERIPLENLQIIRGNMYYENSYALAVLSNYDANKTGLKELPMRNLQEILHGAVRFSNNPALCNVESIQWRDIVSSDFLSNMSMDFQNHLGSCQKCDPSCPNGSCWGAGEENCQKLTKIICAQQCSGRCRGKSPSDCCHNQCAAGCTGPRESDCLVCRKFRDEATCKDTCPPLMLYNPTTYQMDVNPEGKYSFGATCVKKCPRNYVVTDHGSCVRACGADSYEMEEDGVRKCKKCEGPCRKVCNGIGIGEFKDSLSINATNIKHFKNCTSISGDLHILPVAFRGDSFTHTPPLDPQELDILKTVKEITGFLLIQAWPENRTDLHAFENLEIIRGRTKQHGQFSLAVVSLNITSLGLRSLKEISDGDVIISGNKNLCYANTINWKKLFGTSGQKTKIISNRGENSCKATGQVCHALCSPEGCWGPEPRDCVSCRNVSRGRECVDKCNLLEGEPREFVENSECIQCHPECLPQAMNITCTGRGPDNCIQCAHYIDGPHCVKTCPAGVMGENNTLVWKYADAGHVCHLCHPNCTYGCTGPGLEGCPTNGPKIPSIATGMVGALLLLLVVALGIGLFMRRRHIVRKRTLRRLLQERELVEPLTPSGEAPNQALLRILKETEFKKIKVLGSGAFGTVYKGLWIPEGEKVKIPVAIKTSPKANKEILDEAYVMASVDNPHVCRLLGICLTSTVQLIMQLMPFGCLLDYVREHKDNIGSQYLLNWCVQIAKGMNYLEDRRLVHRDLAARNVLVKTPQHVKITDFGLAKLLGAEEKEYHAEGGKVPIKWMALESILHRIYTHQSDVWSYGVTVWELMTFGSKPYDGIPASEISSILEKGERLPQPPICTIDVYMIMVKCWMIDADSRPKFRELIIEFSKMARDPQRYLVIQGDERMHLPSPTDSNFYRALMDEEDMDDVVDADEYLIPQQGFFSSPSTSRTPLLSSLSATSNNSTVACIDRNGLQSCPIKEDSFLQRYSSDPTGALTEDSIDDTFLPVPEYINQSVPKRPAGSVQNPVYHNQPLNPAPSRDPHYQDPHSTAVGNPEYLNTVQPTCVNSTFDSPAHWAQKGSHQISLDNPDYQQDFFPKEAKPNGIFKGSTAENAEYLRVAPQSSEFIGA
# How it was run: as §1
SMILES,IC50 [1] [nM],IC50 [2] [nM],IC50 [3] [nM],IC50 [4] [nM],IC50 [5] [nM],IC50 [6] [nM]
COc1nc(N2CCC(N3CCN(C)CC3)CC2)c(C)cc1Nc1ncc(Br)c(Nc2ccc3nccnc3c2N(C2CC2)S(C)(=O)=O)n1 [Compound I-306],500 to 2500,500 to 2500,50 to 500,50 to 500,500 to 2500,50 to 500
C=Cc1cc(Nc2ncc(Br)c(Nc3ccc4nccnc4c3N(C3CC3)S(C)(=O)=O)n2)c(OC(F)(F)F)cc1N1CCC(N2CCN(C)CC2)CC1 [Compound I-307],500 to 2500,50 to 500,500 to 2500,50 to 500,50 to 500,50 to 500
COc1cc(N2CCC(N3CCN(C)CC3)CC2)c(CC2CC2)cc1Nc1ncc(Br)c(Nc2ccc3nccnc3c2N(C2CC2)S(C)(=O)=O)n1 [Compound I-308],50 to 500,50 to 500,50 to 500,≤ 50,≤ 50,≤ 50
COc1cc(N2CCN(C)CC2)c(C)cc1Nc1ncc(Br)c(Nc2ccc3nccnc3c2N(C2CC2)S(C)(=O)=O)n1 [Compound I-309],50 to 500,≤ 50,≤ 50,≤ 50,≤ 50,≤ 50
CCc1cc(Nc2ncc(Br)c(Nc3ccc4nccnc4c3N(C3CC3)S(C)(=O)=O)n2)c(OC)cc1N1CCN(C)CC1 [Compound I-310],50 to 500,≤ 50,≤ 50,≤ 50,≤ 50,≤ 50
COc1cc(N2CCC(N(C)C)CC2)c(C)cc1Nc1ncc(Br)c(Nc2ccc3nccnc3c2N(C2CC2)S(C)(=O)=O)n1 [Compound I-311],50 to 500,≤ 50,50 to 500,≤ 50,≤ 50,≤ 50
COc1cc(N2CCC(N(C)C)C2)c(C)cc1Nc1ncc(Br)c(Nc2ccc3nccnc3c2N(C2CC2)S(C)(=O)=O)n1 (stereo not drawn) [Compound I-312],50 to 500,≤ 50,50 to 500,≤ 50,≤ 50,≤ 50
COc1cc(N2CCC(N3CCN(C)CC3)CC2)ccc1Nc1ncc(C)c(Nc2ccc3nccnc3c2N(C)S(C)(=O)=O)n1 [Compound I-313],50 to 500,50 to 500,50 to 500,50 to 500,≤ 50,50 to 500
CCc1cc(Nc2ncc(C)c(Nc3ccc4nccnc4c3N(C)S(C)(=O)=O)n2)c(OC(F)(F)F)cc1N1CCC(N2CCN(C)CC2)CC1 [Compound I-314],50 to 500,≤ 50,50 to 500,≤ 50,≤ 50,≤ 50
CCc1cc(Nc2ncc(C)c(Nc3ccc4nccnc4c3N(C)S(C)(=O)=O)n2)c(OC)cc1N1CCN(C)CC1 [Compound I-315],≤ 50,≤ 50,≤ 50,≤ 50,≤ 50,≤ 50
CCc1cnc(Nc2ccc(N3CCC(N4CCN(C)CC4)CC3)cc2OC)nc1Nc1ccc2nccnc2c1N(C)S(C)(=O)=O [Compound I-316],50 to 500,50 to 500,50 to 500,50 to 500,≤ 50,50 to 500
CCc1cnc(Nc2cc(C)c(N3CCC(N4CCN(C)CC4)CC3)cc2OC)nc1Nc1ccc2nccnc2c1N(C)S(C)(=O)=O [Compound I-317],≤ 50,≤ 50,≤ 50,≤ 50,≤ 50,≤ 50
CCc1cc(Nc2ncc(CC)c(Nc3ccc4nccnc4c3N(C)S(C)(=O)=O)n2)c(OC)cc1N1CCC(N2CCN(C)CC2)CC1 [Compound I-318],≤ 50,≤ 50,≤ 50,≤ 50,≤ 50,≤ 50
CCc1cc(Nc2ncc(CC)c(Nc3ccc4nccnc4c3N(C)S(C)(=O)=O)n2)ccc1N1CCC(N2CCN(C)CC2)CC1 [Compound I-319],≤ 50,≤ 50,≤ 50,≤ 50,≤ 50,≤ 50
CCc1cnc(Nc2cc(CC)c(N3CCC(N4CCN(C)CC4)CC3)nc2OC)nc1Nc1ccc2nccnc2c1N(C)S(C)(=O)=O [Compound I-320],≤ 50,≤ 50,≤ 50,≤ 50,≤ 50,≤ 50
CCc1cc(Nc2ncc(CC)c(Nc3ccc4nccnc4c3N(C)S(C)(=O)=O)n2)c(OC(F)(F)F)cc1N1CCC(N2CCN(C)CC2)CC1 [Compound I-321],50 to 500,50 to 500,50 to 500,50 to 500,≤ 50,≤ 50
CCc1cc(Nc2ncc(CC)c(Nc3ccc4nccnc4c3N(C)S(C)(=O)=O)n2)c(OC)cc1N1CCN(C)CC1 [Compound I-322],≤ 50,≤ 50,≤ 50,≤ 50,≤ 50,≤ 50
CCc1cc(Nc2ncc(CC)c(Nc3ccc4nccnc4c3N(C)S(C)(=O)=O)n2)c(OC)cc1N1CCC(N(C)C)CC1 [Compound I-323],≤ 50,≤ 50,≤ 50,≤ 50,≤ 50,≤ 50
CCc1cc(Nc2ncc(CC)c(Nc3ccc4nccnc4c3N(C)S(C)(=O)=O)n2)c(OC)cc1N1CCC(N(C)C)C1 (stereo not drawn) [Compound I-324],≤ 50,≤ 50,≤ 50,≤ 50,≤ 50,≤ 50
COc1cc(N2CCC(N3CCN(C)CC3)CC2)ccc1Nc1ncc(C(C)C)c(Nc2ccc3nccnc3c2N(C)S(C)(=O)=O)n1 [Compound I-325],50 to 500,50 to 500,50 to 500,50 to 500,≤ 50,50 to 500
COc1cc(N2CCC(N3CCN(C)CC3)CC2)c(C)cc1Nc1ncc(C(C)C)c(Nc2ccc3nccnc3c2N(C)S(C)(=O)=O)n1 [Compound I-326],50 to 500,50 to 500,50 to 500,50 to 500,50 to 500,50 to 500
CCc1cc(Nc2ncc(C(C)C)c(Nc3ccc4nccnc4c3N(C)S(C)(=O)=O)n2)c(OC)cc1N1CCC(N2CCN(C)CC2)CC1 [Compound I-327],≤ 50,50 to 500,≤ 50,≤ 50,50 to 500,≤ 50
CCc1cc(Nc2ncc(C(C)C)c(Nc3ccc4nccnc4c3N(C)S(C)(=O)=O)n2)c(OC)nc1N1CCC(N2CCN(C)CC2)CC1 [Compound I-328],50 to 500,50 to 500,50 to 500,≤ 50,50 to 500,≤ 50
CCc1cc(Nc2ncc(C(C)C)c(Nc3ccc4nccnc4c3N(C)S(C)(=O)=O)n2)c(OC)cc1N1CCN(C)CC1 [Compound I-329],50 to 500,50 to 500,50 to 500,≤ 50,50 to 500,≤ 50
CCc1cc(Nc2ncc(C(C)C)c(Nc3ccc4nccnc4c3N(C)S(C)(=O)=O)n2)c(OC)cc1N1CCC(N(C)C)CC1 [Compound I-330],≤ 50,≤ 50,≤ 50,≤ 50,≤ 50,≤ 50
CCc1cc(Nc2ncc(C(C)C)c(Nc3ccc4nccnc4c3N(C)S(C)(=O)=O)n2)c(OC)cc1N1CCC(N(C)C)C1 (stereo not drawn) [Compound I-331],50 to 500,≤ 50,50 to 500,50 to 500,≤ 50,≤ 50
COc1cc(N2CCC(N3CCN(C)CC3)CC2)c(C)cc1Nc1ncc(OC)c(Nc2ccc3nccnc3c2N(C)S(C)(=O)=O)n1 [Compound I-332],≤ 50,≤ 50,≤ 50,≤ 50,≤ 50,≤ 50
CCc1cc(Nc2ncc(OC)c(Nc3ccc4nccnc4c3N(C)S(C)(=O)=O)n2)c(OC)cc1N1CCC(N2CCN(C)CC2)CC1 [Compound I-333],≤ 50,≤ 50,≤ 50,≤ 50,≤ 50,≤ 50

# Reference: patent publication US20230310428A1, “EGFR INHIBITOR AND PREPARATION METHOD AND USE THEREOF” (HONGYUN BIOTECH CO., LTD., priority 2020, published 2023)
